According to US7250410B2, “Cyclic nucleotide phosphodiesterase inhibitors, preparation and uses thereof” (Via Pharmaceuticals, Inc., priority 2001, dated 2007):

Target: T1, PDE3 (Bos taurus, UniProt A0A3Q1M1E8)
T1 sequence (A0A3Q1M1E8 1-1126): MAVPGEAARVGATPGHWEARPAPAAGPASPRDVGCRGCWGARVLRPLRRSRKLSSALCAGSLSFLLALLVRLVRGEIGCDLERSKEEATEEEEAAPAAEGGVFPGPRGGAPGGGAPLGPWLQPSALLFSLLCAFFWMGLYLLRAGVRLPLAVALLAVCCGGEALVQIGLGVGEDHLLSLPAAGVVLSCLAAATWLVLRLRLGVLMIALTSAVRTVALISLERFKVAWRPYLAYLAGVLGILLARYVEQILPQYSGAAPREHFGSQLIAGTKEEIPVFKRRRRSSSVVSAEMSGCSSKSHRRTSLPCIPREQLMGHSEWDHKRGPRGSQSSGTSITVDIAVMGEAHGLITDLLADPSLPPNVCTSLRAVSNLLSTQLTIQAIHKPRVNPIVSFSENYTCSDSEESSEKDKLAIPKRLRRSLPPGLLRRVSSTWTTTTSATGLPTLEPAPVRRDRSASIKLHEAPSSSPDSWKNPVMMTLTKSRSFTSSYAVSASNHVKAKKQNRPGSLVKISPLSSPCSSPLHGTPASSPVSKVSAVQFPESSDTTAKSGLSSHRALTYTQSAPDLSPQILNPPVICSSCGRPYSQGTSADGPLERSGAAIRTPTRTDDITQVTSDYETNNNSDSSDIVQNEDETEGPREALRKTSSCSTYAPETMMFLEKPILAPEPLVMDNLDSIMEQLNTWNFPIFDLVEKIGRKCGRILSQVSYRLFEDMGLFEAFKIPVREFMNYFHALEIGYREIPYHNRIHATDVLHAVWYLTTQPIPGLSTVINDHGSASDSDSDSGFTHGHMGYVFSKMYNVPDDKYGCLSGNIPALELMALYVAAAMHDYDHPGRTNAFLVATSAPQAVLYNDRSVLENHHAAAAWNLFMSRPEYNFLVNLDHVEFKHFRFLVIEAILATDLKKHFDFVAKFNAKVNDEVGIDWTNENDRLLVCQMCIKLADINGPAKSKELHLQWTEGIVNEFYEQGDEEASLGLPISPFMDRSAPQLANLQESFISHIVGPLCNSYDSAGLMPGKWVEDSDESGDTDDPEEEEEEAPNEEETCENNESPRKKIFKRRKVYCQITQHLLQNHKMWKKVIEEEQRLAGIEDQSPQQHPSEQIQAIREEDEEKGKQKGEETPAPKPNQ
Test: Selectivity: inhibition of PDE3, radioenzymatic phosphodiesterase assay
Type: biochemical, bovine
Conditions: read-out: PDE3 percentage inhibition at 10 μM
Method: A 3 g segment of bovine aortic media cut into pieces with scissors was homogenized with an ultra-turrax then a potter glass/glass homogenizer in 7 volumes by weight of buffer A containing a protease inhibitor cocktail (20 mM Tris-HCl, 0.25 M saccharose, 2 mM magnesium acetate, 1 mM dithiothreitol, 5 mM EGTA, 2000 U/ml aprotinin, 10 mg/l leupeptin and 10 mg/l soya trypsic inhibitor). The homogenizate was centrifuged at 105,000 g for 1 hour. The supernatant was loaded on a DEAE-Sephacel column (15×1.6 cm) pre-equilibrated with buffer B (buffer A without the saccharose, EGTA and protease inhibitors). The column was washed until there was no detectable absorption at 280 nm, then eluted with a linear gradient of NaCl (0–0.5 M) in buffer B. 3-ml fractions were collected and enzyme activity was determined under the conditions described hereinafter to localize the different enzymes PDE1, PDE3, PDE4 and PDE5, which were aliquoted and frozen at −80° C. (Lugnier et al., Biochem. Phamacol., 35 (1986) 1746–1751). PDE2 was prepared from bovine endothelial cells by the same methods (Lugnier and Schini, Biochem. Pharmacol. 1990, 39; 75–84).
Cyclic nucleotide phosphodiesterase activity was determined by a radioenzymatic method using tritium-labelled cyclic GMP or AMP (1 μM) as substrate (Lugnier et al., 1986). ^3H-labelled adenosine or guanosine monophosphate formed by hydrolysis of the radiolabelled cyclic nucleotide was then converted to ^3H-labelled adenosine or guanosine in a second reaction with […] in excess. The nucleoside formed was separated from the nucleotides by anion exchange chromatography. Nucleoside radioactivity was determined by liquid scintillation counting. Enzymatic incubations were carried out under conditions allowing no more than 15% hydrolysis of the substrate; each point was performed in duplicate.
The activity of the compounds was evaluated on other phosphodiesterase isoforms, particularly basal state or calmodulin-activated PDE1 from vascular smooth muscle, basal state or cyclic GMP-activated PDE2 from vascular endothelial cells, PDE3 and PDE5 from vascular smooth muscle.
The results obtained are presented in Table 4 hereinafter and are expressed as the percentage inhibition of enzymatic activity produced by […] of the tested compound.

Structure (SMILES)	inhibition at 10 µM
CCOc1cc2c(cc1OC)C(c1ccccc1)=NCC(=O)N2C [IIda, 8-ethoxy-7-methoxy-1-methyl-5-phenyl-1,3-dihydro-2H-1,4-benzodiazepin-2-one]	47%
CCOc1cc2c(cc1OCC)C(c1ccccc1)=NCC(=O)N2 [XXIIag, 7,8-diethoxy-5-phenyl-1,3-dihydro-2H-1,4-benzodiazepin-2-one]	22%
